Experiments:
STAT3 phosphorylation = STAT3 phosphorylation in developing Th17 cells; assay type: cell-based, mouse
Method: FIG. 3. […] FIG. 3A is a set of representative histograms displaying the kinetics of STAT3 phosphorylation in developing Th17 cells treated with or without HF. Resting naïve T cells (grey, shaded peak), T cells activated in the presence of TGFβ plus IL-6 (TGFβ/IL-6) treated with 10 nM MAZ1310 (light gray trace), 5 nM HF (medium gray trace), or 10 nM HF (dark gray trace). T cells were fixed at the indicated times and intracellular phospho-STAT3 staining was performed.
FIG. 3B depicts western blot analysis of CD4^+ CD25^− T cells treated with 10 nM HF or 10 nM MAZ1310 and activated in the presence or absence of TGFβ plus IL-6. Whole cell lysates were generated at the indicated times following activation.
All cell surface staining was performed in FACS buffer (PBS/2% FBS/0.1% NaN3) and antibodies were incubated with cells on ice for 20-30 minutes. Cells were washed with FACS buffer and fixed with FACS buffer plus 1% paraformaldehyde prior to data acquisition. For phospho-STAT3 intracellular staining, stimulated T cells cultured with or without TGFβ plus IL-6 for the indicated times were harvested on ice and fixed in PBS plus 2% paraformaldehyde for 10 minutes at 37° C. Fixed cells were washed twice with staining buffer (PBS/1% BSA/0.1% NaN3) and then permeabilized with perm buffer III (BD Pharmingen) on ice for 30 minutes. Cells were then washed twice with staining buffer and PE-conjugated anti-STAT3 (pY705) (BD Pharmingen) was added per the manufacturer's instructions and incubated with cells at room temperature for 45-60 minutes. Cells were then washed and stored in staining buffer prior to data acquisition. Foxp3 intracellular staining was performed using a Foxp3 intracellular staining kit (eBioscience—San Diego, Calif.) in accordance with the manufacturer's instructions. […] All FACS data was acquired on a FACSCalibur flow cytometer (BD Pharmingen) and analyzed using FlowJo software (Treestar, Inc.—Ashland, Oreg.). […]

Smad2 phosphorylation = assay: TGFβ-stimulated Smad2 phosphorylation in fibroblasts; assay type: cell-based, mouse
Method: FIG. 30. Proline addition to fibroblasts rescues HF-inhibition of TGFβ Signaling. MEFs were treated with HF for 12 hours in the presence or absence of 2 mM proline, treated with 2 ng/mL TGFβ for 1 hour, and assayed for total Smad2 or pSmad2 by Western blot. Total and pSmad2 levels were quantitated using Image J software (bottom panel). Data are representative of three separate experiments.
FIG. 31. HF Dose response for pGCN2-induction and pSmad2-inhibition. Fibroblasts were treated for 12 hours with the indicated dose of HF and analyzed for Smad2 or GCN2 phosphorylation by Western blot. Data are representative of three separate experiments.
FIG. 32. pSmad2 inhibition by HF develops slowly over time. Fibroblasts were treated for the indicated time with 20 nM HF, then treated for 1 hr with 2 ng/mL TGFβ and analyzed for phosphorylation of Smad2 or GCN2 by Western blot. Data are representative of three separate experiments. Bottom panel: Western data in top panel were quantitated using Image J software.

[1] = system: translation in rabbit reticulocyte lysate; assay: In vitro translation in rabbit reticulocyte lysate (RRL); assay type: biochemical; conditions: for rescue of translation inhibition by added amino acids: excess amino acids (1-2 mM)
Method: FIG. 23. HF and FF inhibit prolyl tRNA synthetase activity in vitro. […] Rabbit reticulocyte lysate (RRL) was incubated with luciferase mRNA and translation quantitated in a luminescence assay. A high concentration of mixed or individual amino acids (1 mM of each) was added to rescue translational inhibition. AA Mix 1: Asn, Arg, Val, Glu, Gly; AA Mix2: Lys, Ile, Tyr, Asp, Trp; Mix 3: His, Met, Leu, Ala, Thr; Mix 4: Ser, Phe, Pro, Gln. […] Note log scale of y axis.
Inhibitors (FIG. 22) and proline were assayed as described in FIG. 23A. Note log scale at Y axis. Error bars reflect standard deviation of triplicate determinations.
Short myc-tagged polypeptides of identical sequence (see Example 9, “Materials and Methods”) with the exception that NoPro lacks proline, while ProPro contains a proline dipeptide, were translated in RRL in the presence of indicated inhibitors. Translation was examined by anti-myc Western blot.
Note log scale of Y axis.
Translation in vitro was performed using rabbit reticulocyte lysates and luciferase mRNA as template. Translation was measured as arbitrary units of luciferase activity using a luminometer based luminescence assay. Log scale presentation of background-subtracted data is shown.

## O=C(CC1NCCCC1O)Cn1cnc2cc(Br)c(Cl)cc2c1=O (racemic) [HF, halofuginone]
STAT3 phosphorylation
  time post activation at which STAT3 phosphorylation begins to decrease: around 12 hours
STAT3 phosphorylation; 5-10 nM HF
  STAT3 activation during the first 6 hours of Th17 differentiation: did not interfere with STAT3 activation
  maintenance of STAT3 phosphorylation: decreased the maintenance of STAT3 phosphorylation
Smad2 phosphorylation; 20 nM HF
  time course of Smad2 inhibition versus GCN2 phosphorylation: much slower
Smad2 phosphorylation; 2 mM proline
  reversal of Smad2 phosphorylation inhibition by proline: reversed by the addition of proline
Smad2 phosphorylation; 12 hours HF, same dose range as GCN2 phosphorylation
  TGF-beta-stimulated Smad2 phosphorylation: reduced TGF-beta-stimulated Smad2 phosphorylation
[1]
  translation of NoPro polypeptide: had no effect on the translation of NoPro
  translation of ProPro polypeptide: prevented translation of ProPro
  rescue of translation inhibition by added amino acids: only proline could restore translation
[1]; 80 ng or 0.5 μg EPRS
  rescue of translation inhibition by added purified EPRS: rescued HF/FF-inhibition of protein translation
[1]; 400 nM halofuginone
  translation of luciferase mRNA: inhibition of translation
[1]; data not shown
  eIF2-alpha phosphorylation in RRL: no increase
[1]; listed as halofuginone
  rescue of translation inhibition by added amino acids: rescues inhibition of translation by halofuginone
[1]; standard amino acid mix
  translation of luciferase RNA in RRL: inhibited the translation of luciferase RNA

— US20120058133A1, “INHIBITION OF TRNA SYNTHETASES AND THERAPEUTIC APPLICATIONS THEREOF” (President and Fellows of Harvard College, priority 2009, published 2012)
